Positions of bridges follow the written chain, without caps; N, C: chain ends. Residues, ends and D or L forms follow the SMILES beside them.
Legend:
[1] = mouse, serum
[2] = human serum, 37 °C, 24 h, reversed-phase HPLC
[3] = tested on: U87MG tumor xenograft; conditions: peptide conjugated to a small molecule fluorochrome or radiolabel; compared to weaker binding peptide conjugates including FN-RGD2 and c(RGDyK); cited from earlier work
[4] = biological target: αvβ3 integrin (Homo sapiens, UniProt P05106+P06756); conditions: cited from earlier work
[5] = biological target: α5β1 integrin (Homo sapiens, UniProt P05556+P08648); conditions: cited from earlier work
[6] = tested on: U87MG cell adhesion to fibronectin-coated plates; assay: Integrin-dependent cell adhesion assay; assay type: cell-based, human; conditions: U87MG cells, 2 h
[7] = biological target: integrin αvβ3 (Homo sapiens) (UniProt P06756); conditions: cited from earlier work
integrin αvβ3 (Homo sapiens), sequence (P06756 31-1048, chain 1 of 2): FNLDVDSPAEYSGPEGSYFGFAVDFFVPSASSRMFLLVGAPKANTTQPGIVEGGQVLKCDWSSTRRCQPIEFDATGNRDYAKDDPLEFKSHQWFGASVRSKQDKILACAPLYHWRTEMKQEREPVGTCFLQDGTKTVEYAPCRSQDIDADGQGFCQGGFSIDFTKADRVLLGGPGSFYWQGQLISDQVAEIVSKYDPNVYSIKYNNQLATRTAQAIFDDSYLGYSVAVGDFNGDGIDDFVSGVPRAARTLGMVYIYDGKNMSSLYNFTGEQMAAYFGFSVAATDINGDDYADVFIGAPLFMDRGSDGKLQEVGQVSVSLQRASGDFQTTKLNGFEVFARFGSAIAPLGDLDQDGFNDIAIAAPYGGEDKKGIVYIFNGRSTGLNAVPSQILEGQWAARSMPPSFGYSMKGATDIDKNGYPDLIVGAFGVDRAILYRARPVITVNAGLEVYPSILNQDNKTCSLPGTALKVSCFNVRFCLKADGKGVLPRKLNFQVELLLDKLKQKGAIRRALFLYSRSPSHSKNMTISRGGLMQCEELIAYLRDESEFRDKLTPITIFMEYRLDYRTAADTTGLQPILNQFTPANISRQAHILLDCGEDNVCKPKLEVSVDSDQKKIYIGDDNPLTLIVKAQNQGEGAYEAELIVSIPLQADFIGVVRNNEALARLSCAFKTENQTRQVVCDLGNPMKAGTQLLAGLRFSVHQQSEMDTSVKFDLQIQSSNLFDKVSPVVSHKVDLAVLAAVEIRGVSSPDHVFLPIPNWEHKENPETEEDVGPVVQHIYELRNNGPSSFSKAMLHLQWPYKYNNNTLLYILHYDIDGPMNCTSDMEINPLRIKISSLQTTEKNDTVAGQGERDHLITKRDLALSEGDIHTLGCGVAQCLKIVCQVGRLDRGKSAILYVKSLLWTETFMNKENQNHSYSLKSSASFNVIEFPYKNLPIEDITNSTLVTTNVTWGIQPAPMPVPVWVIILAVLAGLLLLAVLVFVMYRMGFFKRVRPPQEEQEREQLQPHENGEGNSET
integrin αvβ3 (Homo sapiens), sequence (P05106 27-788, chain 2 of 2, further chain): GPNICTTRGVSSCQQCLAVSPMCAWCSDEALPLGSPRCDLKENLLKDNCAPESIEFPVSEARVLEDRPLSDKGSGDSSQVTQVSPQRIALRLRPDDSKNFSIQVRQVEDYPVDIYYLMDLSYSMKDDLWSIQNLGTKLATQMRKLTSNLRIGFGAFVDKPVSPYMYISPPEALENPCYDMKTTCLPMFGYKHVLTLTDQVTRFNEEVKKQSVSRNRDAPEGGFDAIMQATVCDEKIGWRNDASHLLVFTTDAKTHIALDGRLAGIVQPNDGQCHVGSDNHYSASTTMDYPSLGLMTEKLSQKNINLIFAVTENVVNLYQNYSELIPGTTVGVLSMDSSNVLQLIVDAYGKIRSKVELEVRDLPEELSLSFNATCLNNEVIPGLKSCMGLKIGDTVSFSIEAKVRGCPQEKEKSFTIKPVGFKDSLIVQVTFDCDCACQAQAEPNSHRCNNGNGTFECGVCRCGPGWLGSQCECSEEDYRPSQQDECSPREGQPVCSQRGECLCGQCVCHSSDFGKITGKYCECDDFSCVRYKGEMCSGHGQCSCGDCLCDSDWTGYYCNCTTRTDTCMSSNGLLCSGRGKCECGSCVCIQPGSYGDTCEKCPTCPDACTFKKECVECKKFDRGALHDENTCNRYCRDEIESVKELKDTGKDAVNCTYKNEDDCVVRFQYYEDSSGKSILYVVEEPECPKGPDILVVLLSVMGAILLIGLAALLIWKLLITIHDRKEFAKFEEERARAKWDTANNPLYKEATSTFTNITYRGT

α5β1 integrin, sequence (P08648 42-894 limits assumed): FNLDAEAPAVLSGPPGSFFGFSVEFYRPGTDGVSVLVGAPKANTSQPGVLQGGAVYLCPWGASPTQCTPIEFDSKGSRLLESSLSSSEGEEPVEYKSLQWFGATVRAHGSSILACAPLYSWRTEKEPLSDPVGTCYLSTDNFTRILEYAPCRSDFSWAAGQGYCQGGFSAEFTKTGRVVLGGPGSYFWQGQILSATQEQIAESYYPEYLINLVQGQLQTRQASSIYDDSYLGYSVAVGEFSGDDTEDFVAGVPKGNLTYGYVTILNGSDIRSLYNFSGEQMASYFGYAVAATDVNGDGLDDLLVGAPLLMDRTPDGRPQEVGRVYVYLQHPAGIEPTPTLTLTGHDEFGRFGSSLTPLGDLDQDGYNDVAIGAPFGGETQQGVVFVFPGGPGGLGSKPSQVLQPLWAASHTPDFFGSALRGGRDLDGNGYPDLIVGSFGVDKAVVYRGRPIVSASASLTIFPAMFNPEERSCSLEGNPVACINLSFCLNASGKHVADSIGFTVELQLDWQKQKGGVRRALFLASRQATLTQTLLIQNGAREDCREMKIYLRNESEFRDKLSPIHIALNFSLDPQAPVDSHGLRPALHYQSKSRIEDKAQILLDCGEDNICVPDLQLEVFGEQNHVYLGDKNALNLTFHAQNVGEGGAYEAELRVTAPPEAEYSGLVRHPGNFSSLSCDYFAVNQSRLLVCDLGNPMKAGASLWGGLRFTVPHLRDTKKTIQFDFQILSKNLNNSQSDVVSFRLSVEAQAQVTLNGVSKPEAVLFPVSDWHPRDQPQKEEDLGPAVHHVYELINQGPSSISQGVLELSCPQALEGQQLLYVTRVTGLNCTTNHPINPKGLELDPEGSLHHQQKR
α5β1 integrin, sequence (P08648 895-1049 partner limits assumed): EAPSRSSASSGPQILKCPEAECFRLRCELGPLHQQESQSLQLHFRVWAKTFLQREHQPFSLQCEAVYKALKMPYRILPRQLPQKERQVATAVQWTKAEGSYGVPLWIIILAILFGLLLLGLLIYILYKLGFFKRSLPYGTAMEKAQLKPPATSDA
α5β1 integrin, sequence (P05556 21-798): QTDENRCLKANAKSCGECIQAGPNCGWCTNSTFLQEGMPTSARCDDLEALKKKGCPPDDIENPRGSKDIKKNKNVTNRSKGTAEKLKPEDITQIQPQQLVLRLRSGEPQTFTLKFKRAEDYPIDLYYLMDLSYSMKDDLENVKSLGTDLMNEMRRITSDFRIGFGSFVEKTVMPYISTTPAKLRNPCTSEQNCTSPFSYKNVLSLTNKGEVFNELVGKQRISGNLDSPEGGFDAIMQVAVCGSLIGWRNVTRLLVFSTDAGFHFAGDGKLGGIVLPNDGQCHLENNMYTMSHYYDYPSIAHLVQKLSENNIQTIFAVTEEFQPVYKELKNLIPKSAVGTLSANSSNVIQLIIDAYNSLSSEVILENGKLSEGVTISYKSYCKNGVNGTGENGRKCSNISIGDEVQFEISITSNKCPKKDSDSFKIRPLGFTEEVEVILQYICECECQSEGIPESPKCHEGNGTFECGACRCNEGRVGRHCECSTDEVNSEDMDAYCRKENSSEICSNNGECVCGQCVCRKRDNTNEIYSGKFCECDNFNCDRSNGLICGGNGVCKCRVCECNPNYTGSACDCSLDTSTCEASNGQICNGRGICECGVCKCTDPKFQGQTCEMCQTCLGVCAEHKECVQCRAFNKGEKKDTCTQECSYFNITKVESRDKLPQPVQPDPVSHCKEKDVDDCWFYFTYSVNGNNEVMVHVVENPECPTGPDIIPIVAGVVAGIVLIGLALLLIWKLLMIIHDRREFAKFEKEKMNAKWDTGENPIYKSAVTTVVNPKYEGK
αvβ3 integrin, sequence (P06756 31-889 limits assumed): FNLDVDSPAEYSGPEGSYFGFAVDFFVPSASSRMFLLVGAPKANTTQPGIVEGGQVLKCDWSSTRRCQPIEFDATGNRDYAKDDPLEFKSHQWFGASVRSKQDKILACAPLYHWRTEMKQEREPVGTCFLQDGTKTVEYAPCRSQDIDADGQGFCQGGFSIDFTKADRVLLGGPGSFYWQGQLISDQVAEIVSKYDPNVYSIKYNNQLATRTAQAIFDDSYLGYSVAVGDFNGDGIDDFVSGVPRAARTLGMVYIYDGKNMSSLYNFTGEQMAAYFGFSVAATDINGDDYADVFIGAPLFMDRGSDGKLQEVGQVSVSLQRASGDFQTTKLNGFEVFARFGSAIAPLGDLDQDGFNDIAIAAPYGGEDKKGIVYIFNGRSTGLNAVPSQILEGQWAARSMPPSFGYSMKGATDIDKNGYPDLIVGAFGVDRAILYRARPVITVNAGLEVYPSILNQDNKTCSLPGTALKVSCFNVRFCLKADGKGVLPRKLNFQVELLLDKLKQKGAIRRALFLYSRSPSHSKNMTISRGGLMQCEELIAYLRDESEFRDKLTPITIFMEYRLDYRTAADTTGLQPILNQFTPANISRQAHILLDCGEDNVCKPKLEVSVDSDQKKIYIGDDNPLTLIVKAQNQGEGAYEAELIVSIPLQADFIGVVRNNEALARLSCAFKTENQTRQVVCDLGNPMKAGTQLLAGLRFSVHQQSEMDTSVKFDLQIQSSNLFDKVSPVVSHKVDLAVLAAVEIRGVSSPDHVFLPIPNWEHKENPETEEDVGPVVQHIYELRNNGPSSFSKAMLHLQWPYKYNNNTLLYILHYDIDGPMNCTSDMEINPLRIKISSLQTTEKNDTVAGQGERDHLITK
αvβ3 integrin, sequence (P06756 891-1048 partner limits assumed): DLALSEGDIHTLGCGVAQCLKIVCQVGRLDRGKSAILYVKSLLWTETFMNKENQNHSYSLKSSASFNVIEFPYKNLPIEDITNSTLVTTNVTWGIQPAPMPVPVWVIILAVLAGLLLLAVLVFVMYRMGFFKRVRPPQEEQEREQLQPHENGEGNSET
αvβ3 integrin, sequence (P05106 27-788): as the sequence (P05106 27-788, chain 2 of 2, further chain) above
Echistatin, sequence (P17347 131-179): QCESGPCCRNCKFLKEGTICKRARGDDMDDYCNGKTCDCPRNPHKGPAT

Compound: CC(C)C[C@@H]1NC(=O)[C@@H]2CSSC[C@@H](C(=O)NCC(=O)O)NC(=O)[C@H](Cc3ccccc3)NC(=O)CNC(=O)[C@H](CC(N)=O)NC(=O)[C@@H]3CCCN3C(=O)CNC(=O)[C@@H]3CSSC[C@H](NC(=O)[C@H](CO)NC(=O)[C@H]([C@@H](C)O)NC(=O)[C@@H]4CCCN4C(=O)[C@H](C)NC(=O)[C@H](Cc4c[nH]c5ccccc45)NC(=O)[C@H](CC(=O)O)NC(=O)CNC(=O)[C@H](CCCNC(=N)N)NC(=O)CNC(=O)[C@H](CCC(N)=O)NC(=O)[C@@H]4CCCN4C(=O)[C@@H](NC(=O)CN)CSSC[C@H](NC(=O)CNC(=O)[C@H](C)NC1=O)C(=O)N[C@@H](C(C)C)C(=O)N3)C(=O)N[C@@H](CO)C(=O)N[C@@H](CCC(N)=O)C(=O)N[C@@H](CC(=O)O)C(=O)N[C@@H](CO)C(=O)N[C@@H](CC(=O)O)C(=O)N2 [2.5D] (H-GCPQGRGDWAPTSCSQDSDCLAGCVCGPNGFCG-OH; disulfide 2-24, 14-26, 20-32)
- remaining at 24 h [1]: ~90%
- intact peptide remaining [2]: approximately 90%
- tumor uptake (in words) [3]: significant increase in tumor uptake

Compound: CC(C)C[C@@H]1NC(=O)[C@@H]2CSSC[C@@H](C(=O)NCC(=O)O)NC(=O)[C@H](Cc3ccccc3)NC(=O)CNC(=O)[C@H](CC(N)=O)NC(=O)[C@@H]3CCCN3C(=O)CNC(=O)[C@@H]3CSSC[C@H](NC(=O)[C@H]([C@@H](C)O)NC(=O)[C@H](CC(C)C)NC(=O)[C@@H]4CCCN4C(=O)[C@@H]4CCCN4C(=O)[C@H](CC(N)=O)NC(=O)[C@H](CC(=O)O)NC(=O)CNC(=O)[C@H](CCCNC(=N)N)NC(=O)[C@@H]4CCCN4C(=O)[C@H](CCCNC(=N)N)NC(=O)[C@@H]4CCCN4C(=O)[C@@H](NC(=O)CN)CSSC[C@H](NC(=O)CNC(=O)[C@H](C)NC1=O)C(=O)N[C@@H](C(C)C)C(=O)N3)C(=O)N[C@@H](CO)C(=O)N[C@@H](CCC(N)=O)C(=O)N[C@@H](CC(=O)O)C(=O)N[C@@H](CO)C(=O)N[C@@H](CC(=O)O)C(=O)N2 [2.5F] (H-GCPRPRGDNPPLTCSQDSDCLAGCVCGPNGFCG-OH; disulfide 2-24, 14-26, 20-32)
- tumor uptake (in words) [3]: significant increase in tumor uptake

Compound: Ac-PHSCN-NH2 [ATN-161]
- binding affinity to αvβ3 integrin (in words) [4]: micromolar affinity
- binding affinity to α5β1 integrin (in words) [5]: micromolar affinity

Compound: Echistatin
- block of U87MG cell adhesion to fibronectin-coated plates (in words) [6]: able to block

Compound: Echistatin (from UniProt P17347)
- Kd [7]: 0.36 nM

From publication PMC5792193 (Proteins, 2009)
